Like-named read-outs stand apart in the source and are kept apart here.
Legend:
IMP-1 = IMP-1 (Serratia marcescens, UniProt P52699); assay: biochemical; assay type: biochemical; conditions: fluorescence assay, CCF2-FA substrate, 2 pM enzyme, 2 hours at 25° C.; read-out: IMP-1 IC50
Method in brief: (§1)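 Fluorescence assay of metallo-β-lactamase activity using CCF2-FA, a cephalosporin-linked 7-hydroxycoumarin–fluorescein substrate. Inhibitor, enzyme and substrate were incubated together for 2 hours at 25° C. IC50 came from a 4-parameter fit of inhibition versus inhibitor concentration.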

NDM-1 = NDM-1 (Klebsiella pneumoniae, UniProt C7C422); assay: biochemical; assay type: biochemical; conditions: fluorescence assay, CCF2-FA substrate, 1 pM enzyme, 2 hours at 25° C.; read-out: NDM-1 IC50
NDM-1, sequence (C7C422 whole entry, looked up, species assumed): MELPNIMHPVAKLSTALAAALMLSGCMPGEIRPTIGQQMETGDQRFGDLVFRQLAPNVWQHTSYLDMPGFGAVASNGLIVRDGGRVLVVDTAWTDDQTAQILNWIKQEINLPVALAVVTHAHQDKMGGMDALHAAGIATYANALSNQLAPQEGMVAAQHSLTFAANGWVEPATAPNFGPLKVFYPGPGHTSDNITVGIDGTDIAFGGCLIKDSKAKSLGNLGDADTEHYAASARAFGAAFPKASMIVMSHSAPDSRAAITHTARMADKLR
Method in brief: as §1

VIM-1 = VIM-1 (Pseudomonas aeruginosa (strain ATCC 15692 / DSM 22644 / CIP 104116 / JCM 14847 / LMG 12228 / 1C / PRS 101 / PAO1), UniProt A0A0F7KYQ8); assay: biochemical; conditions: CCF2-FA substrate, 30 pM enzyme, 2 hours at 25° C.
Method in brief: as §1

[1] = test system: Escherichia coli expressing NDM-1 (CLB30005, CLB30016); assay type: cell-based; conditions: with imipenem 1 μg/ml; for Escherichia coli MITC95: NDM-1 strain, 95% inhibition of growth; for Escherichia coli expressing NDM-1 (CLB30016) MITC95: 95% inhibition of bacterial growth
Method in brief: (§2)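 Colonies grown overnight on blood agar at 35° C were suspended in saline, diluted 1:100 into 1.1×CAMHB and dispensed. Imipenem was added to 1 μg/ml, then test compound. After 22 hours to 24 hours at 35° C, absorbance was recorded.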

[2] = test system: Klebsiella pneumoniae expressing VIM-1 (IHMA599644); assay type: cell-based; conditions: for Klebsiella pneumoniae MITC95: VIM-1 strain IHMA599644, with imipenem 1 μg/ml, 95% inhibition of growth; for Klebsiella pneumoniae expressing VIM-1 (IHMA599644) MITC95: with imipenem 1 μg/ml, 95% inhibition of bacterial growth
Method in brief: as §2

[3] = test system: Serratia marcescens expressing IMP-1 (CL5741); assay type: cell-based; conditions: for Serratia marcescens MITC95: IMP-1 strain CL5741, with imipenem 1 μg/ml, 95% inhibition of growth; for Serratia marcescens expressing IMP-1 (CL5741) MITC95: with imipenem 1 μg/ml, 95% inhibition of bacterial growth
Method in brief: as §2

[4] = test system: Pseudomonas aeruginosa efflux+ (MB9798), IMP-1; assay type: cell-based; conditions: concentration restoring susceptibility to imipenem at 2 μg/mL in the presence of a class A, C, D serine β-lactamase inhibitor closely related to relebactam
Method in brief: (§3)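 Microbroth MIC tests in PAO1-background strains with fixed imipenem and/or ceftazidime, usually at the CLSI breakpoint, plus fixed class A/C β-lactamase inhibitor against AmpC. MBL inhibitor titrated; concentration restoring susceptibility recorded and compared as fold difference between efflux+ MB9798 and efflux− MB9799.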

[5] = test system: Pseudomonas aeruginosa efflux− (MB9799), IMP-1; assay type: cell-based; conditions: concentration restoring susceptibility to imipenem at 2 μg/mL in the presence of a class A, C, D serine β-lactamase inhibitor closely related to relebactam
Method in brief: as §3

[6] = test system: Pseudomonas aeruginosa MB9798 vs MB9799; conditions: ratio MITC95 PA_9798/MITC95 PA_9799
Method in brief: as §3

[7] = fluorescence assay, read-out: VIM-1 IC50

IMP-1, sequence (P52699 whole entry, looked up, species assumed): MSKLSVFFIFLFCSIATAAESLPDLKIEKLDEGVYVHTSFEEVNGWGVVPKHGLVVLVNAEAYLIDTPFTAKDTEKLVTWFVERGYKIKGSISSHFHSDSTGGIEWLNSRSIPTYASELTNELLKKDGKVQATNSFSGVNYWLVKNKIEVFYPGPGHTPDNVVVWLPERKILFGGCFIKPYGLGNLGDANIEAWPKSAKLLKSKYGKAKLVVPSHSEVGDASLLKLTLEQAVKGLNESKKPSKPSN

SMILES | IC50 (IMP-1) | IC50 (NDM-1) | IC50 (VIM-1; VIM-1 IC50, fluorescence assay) | Escherichia coli MITC95 [1] | Klebsiella pneumoniae MITC95 [2] | Serratia marcescens MITC95 [3] | P. aeruginosa expressing IMP-1, efflux + (MB9798) MITC95 [4] | P. aeruginosa expressing IMP-1, efflux − (MB9799) MITC95 [5] | Efflux ratio [6] | IC50 (VIM-1; [7]) | Escherichia coli expressing NDM-1 (CLB30016) MITC95 [1] | Klebsiella pneumoniae expressing VIM-1 (IHMA599644) MITC95 [2] | Serratia marcescens expressing IMP-1 (CL5741) MITC95 [3]
Nc1ccc(-c2ccc(S(=O)(=O)NC[C@H]3CNCCN3)c(S(N)(=O)=O)c2-c2nn[nH]n2)cn1 [Example 315, (R)-4-(6-aminopyridin-3-yl)-N1-(piperazin-2-ylmethyl)-3-(1H-tetrazol-5-yl)benzene-1,2-disulfonamide] | 0.459 nM | 0.169 nM | 0.211 nM | 0.3906 µM | 6.25 µM | 0.7813 µM | 1.563 µM | 1.563 µM | 1.00 | – | – | – | –
CNCCCN(C)S(=O)(=O)c1ccc(-c2cccc3sc(N)nc23)c(-c2nnn[nH]2)c1S(N)(=O)=O.O=C(O)C(F)(F)F [Example 93, 3-(4-(2-aminobenzo[d]thiazol-4-yl)-N-methyl-2-sulfamoyl-3-(1H-tetrazol-5-yl)phenylsulfonamido)-N-methylpropan-1-aminium 2,2,2-trifluoroacetate] | 5.29 nM | 6.35 nM | – | – | – | – | 3.125 µM | 3.125 µM | 1.00 | 12.4 nM | 6.25 µM | 12.5 µM | 3.125 µM
CN(C1CCS(=O)(=O)C1)S(=O)(=O)c1ccc(-c2cccc3sc(N)nc23)c(-c2nnn[nH]2)c1S(N)(=O)=O (stereo not drawn) [Example 41, 4-(2-amino-1,3-benzothiazol-4-yl)-N^1-(1,1-dioxidotetrahydrothiophen-3-yl)-N~1~-methyl-3-(1H-tetrazol-5-yl)benzene-1,2-disulfonamide] | 0.81 nM | 0.938 nM | – | – | – | – | 25 µM | 3.125 µM | 8.00 | 1.75 nM | 25 µM | 25 µM | 6.25 µM
Nc1nc2c(-c3ccc(S(=O)(=O)N[C@H]4CNC[C@@H]4O)c(S(N)(=O)=O)c3-c3nnn[nH]3)cccc2[nH]1 [Example 169, 4-(2-amino-1H-benzo[d]imidazol-4-yl)-N^1-((3S,4S)-4-hydroxypyrrolidin-3-yl)-3-(1H-tetrazol-5-yl)benzene-1,2-disulfonamide] | 2.08 nM | 0.137 nM | 0.581 nM | – | – | – | 1.563 µM | 1.563 µM | 1.00 | – | 0.7813 µM | 3.125 µM | 1.563 µM
CC(CN)NS(=O)(=O)c1ccc(-c2cccc3sc(N)nc23)c(-c2nnn[nH]2)c1S(N)(=O)=O.O=CO (stereo not drawn) [Example 116, 2-(4-(2-aminobenzo[d]thiazol-4-yl)-2-sulfamoyl-3-(1H-tetrazol-5-yl)phenylsulfonamido)propan-1-aminium formate] | 0.267 nM | 0.0239 nM | 0.265 nM | – | – | – | 0.7813 µM | 1.563 µM | 0.50 | – | 1.563 µM | 3.125 µM | 1.563 µM
Nc1nc2c(-c3ccc(S(=O)(=O)NC[C@H]4CNCCN4)c(S(N)(=O)=O)c3-c3nn[nH]n3)cccc2[nH]1 [Example 314, (R)-4-(2-amino-1H-benzo[d]imidazol-4-yl)-N1-(piperazin-2-ylmethyl)-3-(2H-tetrazol-5-yl)benzene-1,2-disulfonamide] | 0.485 nM | 0.0326 nM | – | 0.7813 µM | 1.563 µM | 1.563 µM | 0.7813 µM | 0.7813 µM | 1.00 | 0.114 nM | – | – | –
Nc1nc2c(-c3ccc(S(=O)(=O)N[C@@H]4CN[C@@H](CO)C4)c(S(N)(=O)=O)c3-c3nnn[nH]3)cccc2s1 [Example 79, 4-(2-amino-1,3-benzothiazol-4-yl)-N1-[(3S,5R)-5-(hydroxymethyl)pyrrolidin-3-yl]-3-(1H-tetrazol-5-yl)benzene-1,2-disulfonamide] | 0.283 nM | 0.0427 nM | 0.181 nM | – | – | – | 0.7813 µM | 1.563 µM | 0.50 | – | 1.563 µM | 3.125 µM | 1.563 µM
NCCNS(=O)(=O)c1ccc(-c2cccc3[nH]c([C@@H](N)CN)nc23)c(-c2nn[nH]n2)c1S(N)(=O)=O [Example 336, (S)—N1-(2-aminoethyl)-4-(2-(1,2-diaminoethyl)-1H-benzo[d]imidazol-4-yl)-3-(2H-tetrazol-5-yl)benzene-1,2-disulfonamide] | 2.9 nM | 0.325 nM | – | 1.563 µM | 3.125 µM | 3.125 µM | 3.125 µM | 1.563 µM | 2.00 | 0.233 nM | – | – | –
Nc1ccc(-c2ccc(S(=O)(=O)N[C@H]3CCNC3)c(S(N)(=O)=O)c2-c2nn[nH]n2)cn1 [Example 195, (S)-4-(6-aminopyridin-3-yl)-N^1-(pyrrolidin-3-yl)-3-(2H-tetrazol-5-yl)benzene-1,2-disulfonamide] | 0.523 nM | 0.169 nM | – | – | – | – | 0.7813 µM | 0.7813 µM | 1.00 | 0.182 nM | 0.5859 µM | 1.563 µM | 0.5859 µM
NCC(CO)(CO)NS(=O)(=O)c1ccc(-c2cccc3[nH]c(N)nc23)c(-c2nn[nH]n2)c1S(N)(=O)=O [Example 247, 4-(2-amino-1H-benzo[d]imidazol-4-yl)-N-1-(1-amino-3-hydroxy-2-(hydroxymethyl)propan-2-yl)-3-(2H-tetrazol-5-yl)benzene-1,2-disulfonamide] | 0.504 nM | 0.0331 nM | – | 0.7813 µM | 3.125 µM | 1.563 µM | 1.563 µM | 0.7813 µM | 2.00 | 0.149 nM | – | – | –

Reference: patent US10221163B2 (priority 2015, dated 2019)
